ChEMBL document CHEMBL1201862, “PubChem BioAssay data set” (2004)
Activity calls are given as the source filed them.

Legend:
[1] = target: Photoreceptor-specific nuclear receptor (Homo sapiens, UniProt Q9Y5X4); format: functional;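 also: potency for compounds that break the NR2E3 corepressor complex and count as activators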
[2] = target: T1, Zinc finger protein mex-5 (Caenorhabditis elegans, UniProt Q9XUB2); experiment: potency of MEX-5 RNA-binding blockers – biochemical, C. elegans, fluorescence polarization, dose response (AID 1960)
T1 sequence (Q9XUB2 whole entry): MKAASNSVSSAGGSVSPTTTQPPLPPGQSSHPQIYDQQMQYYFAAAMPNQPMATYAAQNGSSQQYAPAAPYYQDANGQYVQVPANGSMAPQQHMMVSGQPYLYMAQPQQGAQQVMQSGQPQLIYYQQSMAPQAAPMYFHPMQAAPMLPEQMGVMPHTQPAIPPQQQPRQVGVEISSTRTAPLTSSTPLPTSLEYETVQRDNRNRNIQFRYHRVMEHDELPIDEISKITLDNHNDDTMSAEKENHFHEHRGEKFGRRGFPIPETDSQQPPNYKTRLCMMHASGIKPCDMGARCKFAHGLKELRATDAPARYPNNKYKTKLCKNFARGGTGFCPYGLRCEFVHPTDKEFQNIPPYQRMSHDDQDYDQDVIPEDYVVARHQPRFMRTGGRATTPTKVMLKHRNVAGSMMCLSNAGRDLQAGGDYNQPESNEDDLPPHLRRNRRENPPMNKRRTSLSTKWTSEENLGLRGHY

SUMO-activating enzyme = SUMO-activating enzyme (Homo sapiens, UniProt Q9UBT2); experiment: blockers of SAE1/SAE2–UBC9 SUMO transfer – biochemical, HTRF, uHTS, primary screen (AID 2006); format: protein-complex assay
Chain of SUMO-activating enzyme (Q9UBE0 whole entry): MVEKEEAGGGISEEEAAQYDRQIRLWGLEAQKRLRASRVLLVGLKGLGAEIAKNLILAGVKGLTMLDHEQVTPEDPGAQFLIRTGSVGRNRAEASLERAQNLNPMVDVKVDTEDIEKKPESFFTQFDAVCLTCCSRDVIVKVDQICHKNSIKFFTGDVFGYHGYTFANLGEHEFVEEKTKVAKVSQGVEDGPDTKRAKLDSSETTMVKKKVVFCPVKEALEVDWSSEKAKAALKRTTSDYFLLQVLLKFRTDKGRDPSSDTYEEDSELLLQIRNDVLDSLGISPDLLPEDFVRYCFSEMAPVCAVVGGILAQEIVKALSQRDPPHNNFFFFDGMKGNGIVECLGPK
Chain of SUMO-activating enzyme (Q9UBT2 whole entry): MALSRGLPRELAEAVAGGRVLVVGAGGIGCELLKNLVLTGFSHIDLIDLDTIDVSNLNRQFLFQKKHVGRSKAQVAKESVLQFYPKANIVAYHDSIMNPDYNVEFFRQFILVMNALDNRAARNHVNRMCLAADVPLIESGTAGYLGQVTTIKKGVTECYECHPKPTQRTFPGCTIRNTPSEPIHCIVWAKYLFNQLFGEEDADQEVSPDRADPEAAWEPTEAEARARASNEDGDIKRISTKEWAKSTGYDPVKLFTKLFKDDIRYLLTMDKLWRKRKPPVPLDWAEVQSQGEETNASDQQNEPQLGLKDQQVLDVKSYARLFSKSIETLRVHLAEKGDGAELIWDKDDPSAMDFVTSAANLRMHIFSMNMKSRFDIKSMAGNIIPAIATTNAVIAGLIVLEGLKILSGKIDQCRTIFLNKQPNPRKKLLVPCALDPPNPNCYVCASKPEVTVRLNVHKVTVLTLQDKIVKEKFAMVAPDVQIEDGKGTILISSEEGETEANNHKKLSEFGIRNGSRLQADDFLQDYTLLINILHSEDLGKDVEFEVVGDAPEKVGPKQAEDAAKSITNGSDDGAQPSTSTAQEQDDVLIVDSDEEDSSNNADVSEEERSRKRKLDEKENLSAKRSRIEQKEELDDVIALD

[3] = target: T2, Histone-lysine N-methyltransferase NSD2 (Homo sapiens, UniProt O96028); format: biochemical
T2 sequence (O96028 whole entry): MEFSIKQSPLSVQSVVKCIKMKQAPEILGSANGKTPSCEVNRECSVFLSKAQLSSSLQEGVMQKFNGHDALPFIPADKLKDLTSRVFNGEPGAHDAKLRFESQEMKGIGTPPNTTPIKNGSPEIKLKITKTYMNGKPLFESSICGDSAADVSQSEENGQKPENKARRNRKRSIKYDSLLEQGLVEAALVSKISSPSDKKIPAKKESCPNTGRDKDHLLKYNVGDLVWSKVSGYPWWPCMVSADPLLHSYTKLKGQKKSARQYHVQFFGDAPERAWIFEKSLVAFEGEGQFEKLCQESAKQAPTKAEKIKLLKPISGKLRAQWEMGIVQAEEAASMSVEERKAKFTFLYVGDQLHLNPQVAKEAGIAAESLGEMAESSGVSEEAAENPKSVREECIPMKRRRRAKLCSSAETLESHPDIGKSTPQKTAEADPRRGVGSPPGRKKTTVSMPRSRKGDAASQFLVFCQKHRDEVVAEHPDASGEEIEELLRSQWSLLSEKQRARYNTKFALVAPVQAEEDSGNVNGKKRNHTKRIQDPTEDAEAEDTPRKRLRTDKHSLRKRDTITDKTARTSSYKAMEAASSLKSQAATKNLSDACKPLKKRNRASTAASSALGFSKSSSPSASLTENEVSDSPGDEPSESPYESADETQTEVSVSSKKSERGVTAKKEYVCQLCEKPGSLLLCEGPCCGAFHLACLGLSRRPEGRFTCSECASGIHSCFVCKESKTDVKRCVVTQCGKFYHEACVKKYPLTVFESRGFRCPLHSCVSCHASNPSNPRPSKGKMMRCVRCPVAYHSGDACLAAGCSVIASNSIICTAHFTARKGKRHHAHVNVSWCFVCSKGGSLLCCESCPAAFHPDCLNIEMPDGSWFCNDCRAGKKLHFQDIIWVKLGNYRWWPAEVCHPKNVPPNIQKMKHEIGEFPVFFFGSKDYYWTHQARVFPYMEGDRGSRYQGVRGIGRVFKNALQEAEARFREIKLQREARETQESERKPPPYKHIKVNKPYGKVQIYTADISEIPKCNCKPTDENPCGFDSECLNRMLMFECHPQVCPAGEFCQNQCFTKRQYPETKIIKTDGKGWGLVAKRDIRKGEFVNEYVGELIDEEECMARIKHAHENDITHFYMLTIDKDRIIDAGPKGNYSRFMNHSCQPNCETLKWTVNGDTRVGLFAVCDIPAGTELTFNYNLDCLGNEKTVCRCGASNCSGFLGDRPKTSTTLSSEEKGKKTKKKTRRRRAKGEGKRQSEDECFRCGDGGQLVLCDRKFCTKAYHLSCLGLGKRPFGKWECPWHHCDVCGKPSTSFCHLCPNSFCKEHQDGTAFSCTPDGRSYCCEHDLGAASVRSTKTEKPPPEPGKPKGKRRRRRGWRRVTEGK

[4] = target: Sphingosine 1-phosphate receptor 1 (Homo sapiens, UniProt P21453); format: functional;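 also: Tango beta-arrestin reporter U2OS cells stimulated with S1P near its EC80; inhibitor potency meaning antagonism of receptor activation by the natural agonist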
Chain of Sphingosine 1-phosphate receptor 1 (P21453 whole entry): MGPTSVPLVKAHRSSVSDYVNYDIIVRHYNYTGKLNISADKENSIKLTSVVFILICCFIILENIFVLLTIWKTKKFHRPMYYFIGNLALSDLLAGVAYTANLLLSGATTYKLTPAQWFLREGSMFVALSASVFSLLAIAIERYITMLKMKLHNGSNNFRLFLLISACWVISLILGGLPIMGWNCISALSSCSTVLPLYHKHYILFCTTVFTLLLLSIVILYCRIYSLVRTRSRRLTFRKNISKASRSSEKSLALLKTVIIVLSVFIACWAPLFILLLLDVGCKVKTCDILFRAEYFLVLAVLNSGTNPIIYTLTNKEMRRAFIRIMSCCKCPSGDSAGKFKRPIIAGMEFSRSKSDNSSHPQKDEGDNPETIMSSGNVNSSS

[5] = Intein inhibitors as potential Tuberculosis drugs, a cytotoxicity screen. [Related pubchem assays (depositor defined):AID2221, AID2223, AID434968, AID435010, AID449749, AID449750, AID489010]; format: functional
Orexin receptor type 2 = Orexin receptor type 2 (Homo sapiens, UniProt O43614); experiment: Counterscreen assay for antagonists of the orexin 1 receptor (OX1R; HCRTR1): Homogeneous Time Resolved Fluorescence (HTRF)-based cell-based dose response assay for antagonists of the orexin 2 receptor (OX2R; HCRTR2), run by assay provider.; format: functional
Chain of Orexin receptor type 2 (O43614 whole entry): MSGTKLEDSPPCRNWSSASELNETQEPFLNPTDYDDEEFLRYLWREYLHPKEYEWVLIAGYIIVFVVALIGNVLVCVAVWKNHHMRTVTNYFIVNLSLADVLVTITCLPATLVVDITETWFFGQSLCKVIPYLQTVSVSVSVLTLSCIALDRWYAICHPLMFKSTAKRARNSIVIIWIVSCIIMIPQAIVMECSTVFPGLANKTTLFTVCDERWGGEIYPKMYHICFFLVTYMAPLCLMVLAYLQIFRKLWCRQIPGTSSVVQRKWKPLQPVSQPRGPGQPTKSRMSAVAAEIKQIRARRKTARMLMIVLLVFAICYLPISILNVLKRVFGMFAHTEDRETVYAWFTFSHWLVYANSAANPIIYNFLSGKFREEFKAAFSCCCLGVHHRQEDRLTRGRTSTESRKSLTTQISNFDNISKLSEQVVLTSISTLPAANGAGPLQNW

[6] = activation of miR-122 Renilla sensor silencing – cell-based, Huh7 psiCHECK-miR122, Renilla luciferase, cherry-picked, dose response (AID 651956); format: functional;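 also: huh7 hepatoma cells stably carrying a psiCHECK-2 miR-122 sensor plasmid; renilla luciferase signal reporting endogenous miR-122 activity after 48 h compound exposure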
[7] = general mammalian cell viability loss – activator set, cherry-pick, cytotoxicity control for miR-122 modulator project, dose response (AID 720690); format: functional, cell-based;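 also: HEK293T human cells scored for general mammalian cytotoxicity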
[8] = target: Ribosomal protein S6 kinase alpha-3 (Homo sapiens, UniProt P51812); format: functional;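 also: measured within a kinome-wide profiling panel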
Chain of Ribosomal protein S6 kinase alpha-3 (P51812 whole entry): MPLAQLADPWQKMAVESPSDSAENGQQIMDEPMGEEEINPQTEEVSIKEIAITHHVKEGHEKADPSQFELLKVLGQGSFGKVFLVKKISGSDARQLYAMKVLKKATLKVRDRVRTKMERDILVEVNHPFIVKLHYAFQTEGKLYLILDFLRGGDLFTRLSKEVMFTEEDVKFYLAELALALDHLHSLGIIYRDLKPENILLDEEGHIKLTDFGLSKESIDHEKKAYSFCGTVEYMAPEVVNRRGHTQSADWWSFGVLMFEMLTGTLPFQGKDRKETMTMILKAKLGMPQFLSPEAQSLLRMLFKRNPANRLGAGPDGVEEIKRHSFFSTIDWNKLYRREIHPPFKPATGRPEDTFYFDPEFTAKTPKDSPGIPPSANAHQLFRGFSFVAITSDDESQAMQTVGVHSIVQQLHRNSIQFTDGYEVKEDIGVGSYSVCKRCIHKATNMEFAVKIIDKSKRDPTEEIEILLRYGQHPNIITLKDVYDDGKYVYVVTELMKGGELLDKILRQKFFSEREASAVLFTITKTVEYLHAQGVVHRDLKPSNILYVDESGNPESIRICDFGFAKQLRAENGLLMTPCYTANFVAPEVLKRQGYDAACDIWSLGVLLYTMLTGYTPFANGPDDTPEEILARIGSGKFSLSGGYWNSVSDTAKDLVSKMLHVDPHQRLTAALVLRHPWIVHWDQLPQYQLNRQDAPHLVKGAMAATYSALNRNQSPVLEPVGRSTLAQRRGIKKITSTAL

[9] = target: Mitogen-activated protein kinase 14 (Homo sapiens, UniProt Q16539); format: functional;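 also: part of a kinome-wide panel, MAPK14 entry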
Chain of Mitogen-activated protein kinase 14 (Q16539 whole entry): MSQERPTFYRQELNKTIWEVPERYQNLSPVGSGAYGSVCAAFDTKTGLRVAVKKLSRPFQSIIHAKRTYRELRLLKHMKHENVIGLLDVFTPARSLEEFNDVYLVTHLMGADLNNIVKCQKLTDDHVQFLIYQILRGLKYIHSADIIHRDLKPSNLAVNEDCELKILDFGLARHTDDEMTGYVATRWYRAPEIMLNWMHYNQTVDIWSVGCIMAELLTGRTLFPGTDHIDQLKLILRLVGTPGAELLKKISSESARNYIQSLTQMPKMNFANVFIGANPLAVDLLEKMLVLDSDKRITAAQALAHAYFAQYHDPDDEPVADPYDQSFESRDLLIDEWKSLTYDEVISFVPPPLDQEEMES

cells = format: functional, cell-based
[10] = Counterscreen for AddAB inhibitors: absorbance-based bacterial cell-based high throughput dose response assay for inhibitors of bacterial viability. [Related pubchem assays (depositor defined):AID435030, AID449728, AID449731, AID488942, AID488955, AID488956]; format: functional
[11] = target: ATP-dependent molecular chaperone HSP82 (Candida albicans (strain WO-1) (Yeast), UniProt C4YTQ8); experiment: steroid-induced GRE reporter decrease in yeast – S. cerevisiae, luminescence, Hsp90 inhibitor project, dose response (AID 2400); format: functional, cell-based;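 also: beta-galactosidase luminescence from glucocorticoid response element reporter as proxy for Hsp90 function; inhibitor potency where signal loss means Hsp90 inhibition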
Chain of ATP-dependent molecular chaperone HSP82 (C4YTQ8 whole entry, the tested form may be a part): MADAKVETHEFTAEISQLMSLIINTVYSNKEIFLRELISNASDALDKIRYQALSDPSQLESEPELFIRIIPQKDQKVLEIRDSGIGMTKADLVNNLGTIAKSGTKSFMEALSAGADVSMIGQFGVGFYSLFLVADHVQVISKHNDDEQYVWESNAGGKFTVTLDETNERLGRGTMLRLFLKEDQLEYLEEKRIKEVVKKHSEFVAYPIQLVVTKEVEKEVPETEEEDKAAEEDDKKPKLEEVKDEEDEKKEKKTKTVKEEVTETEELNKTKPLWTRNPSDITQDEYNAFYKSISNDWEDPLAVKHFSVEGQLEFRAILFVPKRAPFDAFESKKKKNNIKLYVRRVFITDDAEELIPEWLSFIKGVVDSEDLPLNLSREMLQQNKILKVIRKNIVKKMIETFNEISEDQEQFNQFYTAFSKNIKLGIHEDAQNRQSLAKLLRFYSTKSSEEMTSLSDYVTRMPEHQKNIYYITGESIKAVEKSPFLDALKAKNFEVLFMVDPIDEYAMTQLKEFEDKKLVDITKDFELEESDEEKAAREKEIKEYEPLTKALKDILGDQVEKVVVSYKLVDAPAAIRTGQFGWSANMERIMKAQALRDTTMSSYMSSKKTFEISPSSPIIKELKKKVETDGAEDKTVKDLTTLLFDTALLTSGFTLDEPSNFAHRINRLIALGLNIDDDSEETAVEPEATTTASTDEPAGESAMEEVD

[12] = off-target signal loss in HeLa-CEM21 co-culture – HeLa F-luc CTL cells, cherry-picked, counter-screen for HIV-1 Env fusion inhibitor project, dose response (AID 652040); format: functional, cell-based;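 also: potency for signal decrease marking cytotoxic or nonspecific inhibition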
[13] = HIV-1 AD8 envelope cell-cell fusion blockers – cherry-pick, dose response (AID 652062); format: functional, cell-based;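 also: luciferase signal from cell-cell fusion driven by HIV-1 clade B AD8 Env; potency is for inhibitors of fusion seen as a drop in luminescence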
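For CC50 in this document: cells exposed to compound for 72 hours before luminescence readout.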

Chain of Photoreceptor-specific nuclear receptor (Q9Y5X4 whole entry): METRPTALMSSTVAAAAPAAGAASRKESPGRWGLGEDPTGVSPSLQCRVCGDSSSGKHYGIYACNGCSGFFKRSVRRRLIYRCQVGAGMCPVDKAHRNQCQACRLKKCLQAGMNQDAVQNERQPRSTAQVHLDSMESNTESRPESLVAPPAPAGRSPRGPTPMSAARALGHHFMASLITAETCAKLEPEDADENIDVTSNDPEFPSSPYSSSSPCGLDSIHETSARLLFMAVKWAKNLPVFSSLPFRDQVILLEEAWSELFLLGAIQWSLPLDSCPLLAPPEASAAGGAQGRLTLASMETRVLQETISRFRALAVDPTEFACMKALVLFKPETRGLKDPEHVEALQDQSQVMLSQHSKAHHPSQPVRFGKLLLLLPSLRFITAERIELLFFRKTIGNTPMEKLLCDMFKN

O=C(O)CC(C(=O)O)N1C(=O)/C(=C/C=C/c2ccco2)SC1=S (stereo unspecified)
IC50 [1]: > 39.8 µM (not active) | EC50 [2]: 23.3 µM (active) | IC50 (SUMO-activating enzyme): 13.7 µM (active) | AC50 [3]: 4.16 µM (active)

Cc1ccc(C(=O)OCn2ncc(Cl)c(Cl)c2=O)cc1
IC50 [4]: 10.6 µM (not active) | CC50 [5]: 2.85 µM (active) | IC50 (Orexin receptor type 2): > 50 µM (inactive) | AC50 [6]: 9.52 µM (active) | AC50 [7]: 4.47 µM (active)

O=C(Nc1cccc(C2Nc3ccc4ccccc4c3C3C=CCC32)c1)c1ccc(F)cc1 (stereo unspecified)
Ki [8]: > 3.98 µM (inactive) | Ki [9]: > 3.98 µM (inactive)

CCCC(=O)NC(c1cccs1)c1cc(Cl)c2cccnc2c1O (stereo unspecified)
EC50 (cells): > 350 µM (not active) | IC50 [10]: > 119 µM (inactive) | EC50 [11]: > 150 µM (inactive) | AC50 [12]: 6.09 µM (active) | AC50 [13]: 6.73 µM (active)
